# Patent US20050209157A1, “Short bioactive peptides and methods for their use” (priority 2001, published 2005)
# Where two headings read alike, the source gives them in different places. No end group written: not given here.
# How the values were obtained:
# cancer cell lines = assay: Anti-cancer assays, MTT, summary over the cancer cell lines; format: cell-based; settings: X = preferred
# [1] = system: human leukocyte (WBC) cells; assay: Stimulation and proliferation of leukocytes, Alamar Blue; format: cell-based; settings: 48 hours
# [2] = system: human fibroblast cells (WI38); assay: Stimulation and proliferation of fibroblasts, CyQuant; format: cell-based; settings: for Peptide treated cell activity Stimulation relative to control: 48 hrs, 2.0% FBS
# Procedure: Procedure: Different cell lines were maintained with different medium according to the ATCC. […] The cell suspension was centrifuged for 10 minutes at 100 rpm. The supernatant was removed and discarded without disturbing the cell pellet. A concentrated cell suspension was prepared in 1.0 ml of medium to obtain a density of about 10^5 to 10^6 cells/ml. The actual cell density was determined by counting the cells using a hemocytometer with the Trypan Blue method. Cell numbers were adjusted to obtain equal number of cells per 200 μl volume. Cells were plated with 0% FBS, 2% FBS, 3% FBS and 5% FBS. The plates were incubated at 37° C. for a time sufficient to allow the cells to attach. For long-term proliferation studies, 100 μl of medium was removed from each well each day and replaced with fresh medium.
# At the desired time, the medium was removed from the adherent cells in a 96 well plate. These cells were already treated with test agents. The cells were frozen in the plate at −70° C. for 30 minutes. The cells were thawed at room temperature. CyQuant GR dry/Cell Lysis Buffer (200 μl) was added to each sample cell. The cells were incubated at room temperature for 15 minutes while protected from the light. Fluorescence was measured using fmax at 485-538 nm.
# The above CyQuant protocol was used to examine possible peptide stimulation and/or proliferation of fibroblasts. […] This is shown by the addition of Fetal Bovine Serum (FBS) to the medium. […] Control cells and peptide treated cells are with medium and FBS as indicated.
# in vitro [3] = format: cell-based, human; settings: human, human red blood cells
# [4] = system: human red blood cells (RBC); assay: in vitro; format: cell-based; settings: human red blood cells
# fungal = assay: Presently preferred antifungal peptides, selected from the MIC/MBC data; format: cell-based; settings: X = preferred
# Excerpt: The peptide's “length” is the number of amino acid residues in the sequence.
# in vitro [5] = settings: human, WI38 normal lung fibroblast cells
# [6] = system: Escherichia coli ATCC 25922; assay: Antimicrobial assay I, modified protocol (tryptic soy broth), MBC; settings: minimum bactericidal concentration, Table 4
# [7] = system: Pseudomonas aeruginosa ATCC 27853; assay: as above; settings: minimum bactericidal concentration, Table 4
# [8] = system: Stapholococcus aureus ATCC 25923; assay: as above; settings: minimum bactericidal concentration, Table 4
# [9] = system: Candida albicans ATCC 10231; assay: Antimicrobial assay I, modified protocol (tryptic soy broth), MFC; settings: minimum fungicidal concentration, Table 4
# Procedure: The preparation of all media, stock solutions, and dilutions took place in a laminar flow hood to prevent contamination. Bacterial cells were freshly grown on antibiotic medium 2 agar slants (pH 7.0 at 25° C.). Bacteria were suspended and diluted in antibiotic medium 3 to about 10^4 cfu/ml and used as the inoculum. Sample solutions (100 μl/well) were added to plates according to the plate layout. Inoculum (100 μl/well) was added to achieve a final concentration of 5×10^3 cfu/ml. Negative controls received 100 μl saline and 100 μl growth medium. Positive controls received 100 μl saline and 100 μl inoculum. Bacterial plates were incubated at 37° C. for 24 hours.
# However, the data for Table 4 were obtained with a modified protocol wherein the medium was tryptic soy broth, inocolum strength was approximately 10^4 CFU per ml, and values determined were minimum bactericidal concentrations (MBC) or minimum fungicidal concentrations (MFC).
# MBC or MFC values are in μg/mL. E. coli is Escherichia coli ATCC accession number 25922; P. aerug is Pseudomonas aeruginosa ATCC accession number 27853, S. aur. is Stapholococcus aureus ATCC accession number 25923; Candida is Candida albicans ATCC accession number 10231.
# [10] = system: Pseudomonas aeruginosa ATCC 9027; assay: Antimicrobial assay I, MIC by OD measurement; format: cell-based; settings: 37° C. for 24 hours, absorbance 620 nm
# [11] = system: Staphylococcus aureus ATCC 6538; assay: Antimicrobial assay I, MIC by OD measurement; format: cell-based; settings: 37° C. for 24 hours, absorbance 620 nm
# [12] = system: yeast (Saccharomyces cerevisiae); assay: Antimicrobial assay I, yeast assay in RPMI 1640; format: cell-based; settings: RPMI 1640 media
# S. aureus (MRSA) = format: cell-based, Staphylococcus aureus; settings: mean of three; 16 to 20 hours at 35° C.
# S. epidermidis C621 = format: cell-based, Staphylococcus epidermidis; settings: mean of three; 16 to 20 hours at 35° C.
# S. pyogenes M76 = assay: Antimicrobial assays II, NCCLS broth microdilution MIC; format: cell-based, Streptococcus pyogenes; settings: mean of three; 16 to 20 hours at 35° C.
# S. pyogenes ATCC19615 = assay: as above; format: cell-based, Streptococcus pyogenes; settings: mean of three, in µg/mL
# S. pneumoniae C718 = assay: as above; format: cell-based, Streptococcus pneumoniae; settings: mean of three
# P. acne ATCC 6919 = assay: as above; format: cell-based, Propionibacterium acnes; settings: mean of three, in µg/mL
# BMKC = assay: Anti-cancer assay, MTT, LD50; format: cell-based; settings: BMKC cloned melanoma line, 24 hours with peptide
# Excerpt: (§1) Numbers are LD50 values (μg/mL).
# H1299 = assay: Anti-cancer assay, MTT, LD50; format: cell-based; settings: 24 hours with peptide, lung large cell carcinoma
# Excerpt: as §1
# HeLaS3 = assay: Anti-cancer assay, MTT, LD50; format: cell-based; settings: 24 hours with peptide, cervical carcinoma
# Excerpt: as §1
# MCF7 = assay: Anti-cancer assay, MTT, LD50; format: cell-based; settings: MCF7 breast adenocarcinoma line, MTT, 24 hours with peptide
# Excerpt: as §1
# PC3 = assay: Anti-cancer assay, MTT, LD50; format: cell-based; settings: 24 hours with peptide, prostate adenocarcinoma
# Excerpt: as §1
# SW480 = assay: Anti-cancer assay, MTT, LD50; format: cell-based; settings: SW480 colon adenocarcinoma line, 24 hours with peptide
# Excerpt: as §1
# Staph. aureus 29213 = assay: microbe, parasite or virus in culture; settings: for MBC: Staphylococcus aureus, 29213, read-out: MBC, Without peptide; for MBC, With 5 μg/mL peptide: with 5 μg/mL peptide Shiva-10
# Excerpt: This experiment determined the peptide MBC in the absence of the antimicrobial agent, or in the presence of the indicated concentration of antimicrobial agent
# P. aeruginosa H374 = format: cell-based, Pseudomonas aeruginosa; settings: for FIC Index: 0.5 or less = synergy
# Outline: (§2)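 Synergy against efflux-mutant strains: two-fold dilutions of nalidixic acid or chloramphenicol tested with peptide held at ¼ of its MIC.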
# P. aeruginosa H774 = format: cell-based, Pseudomonas aeruginosa; settings: P. aeruginosa H744; nalidixic acid + peptide at ¼ MIC; 0.5 or less = synergy
# Outline: as §2
# P. aeruginosa = format: cell-based, Pseudomonas aeruginosa; settings: P. aeruginosa H744; MIC of nalidixic acid with peptide at ¼ MIC
# Outline: as §2
# WI38 = settings: MTT, 24 hours with peptide; normal fibroblast line
# Escherichia coli 25922 = assay: microbe, parasite or virus in culture
# Excerpt: Synergy between peptide Shiva-10 (SEQ ID NO:4) and various antimicrobial agents was investigated against Escherichia coli 25922.
# Synergy between tetracycline and various peptides was investigated against Escherichia coli 25922 MBC. […] When combined with the peptides, the concentration of tetracycline was held at 1.5 ppm.
# [13] = pH 7, hemolytic assay, concentration at 50% hemolysis, 1 hour at 37° C., read-out: LD50
# [14] = Escherichia coli, 25922, read-out: MBC, Without peptide
compound,measurement,setting,value
FALALKALKKALKKLKKALKKAL-NH2 [compound 2],Anti-cancer (preferred peptide),cancer cell lines,X (Preferred anticancer peptides can be selected as having LD50 values of less than or equal to about 25 μg/ml)
same,Peptide treated cell activity Percent stimulation relative to control,[1]; 0.1 ug/ml,117%
same,Peptide treated cell activity Percent stimulation relative to control,[1]; 1 ug/ml,118%
same,Peptide treated cell activity Percent stimulation relative to control,[1]; 10 ug/ml,119%
same,Peptide treated cell activity Percent stimulation relative to control,[1]; 100 ug/ml,121%
same,Peptide treated cell activity Percent stimulation relative to control,[1]; 500 ug/ml,119%
same,percent cell viability above or below control,"[2]; 0.1 μg/ml, 0% FBS",−27%
same,Peptide treated cell activity Stimulation relative to control,[2]; 0.1 μg/ml,125%
same,percent cell viability above or below control,"[2]; 0.1 μg/ml, […] FBS",26%
same,percent cell viability above or below control,"[2]; 1 μg/ml, 0% FBS",−3%
same,Peptide treated cell activity Stimulation relative to control,[2]; 1 μg/ml,156%
same,percent cell viability above or below control,"[2]; 1 μg/ml, […] FBS",57%
same,percent cell viability above or below control,"[2]; 10 μg/ml, 0% FBS",27%
same,Peptide treated cell activity Stimulation relative to control,[2]; 10 μg/ml,122%
same,percent cell viability above or below control,"[2]; 10 μg/ml, […] FBS",23%
same,percent cell viability above or below control,"[2]; 100 μg/ml, 0% FBS",−82%
same,Peptide treated cell activity Stimulation relative to control,[2]; 100 μg/ml,35%
same,percent cell viability above or below control,"[2]; 100 μg/ml, […] FBS",−66%
same,HC50 at 1 h,"in vitro [3]; pH 7, Table 26, valine substitution, read-out: Hemolysis RBC LD50",12 µg/mL
same,Peptide toxicity RBC LD/50,[4],30
same,Anti-fungal (preferred peptide),fungal,X (Preferred antifungal peptides can be selected as having MIC or MBC values of less than or equal to about 25 μg/ml)
same,CC50 at 24 h,"in vitro [5]; Peptide toxicity WI-38 LD/50, human fibroblast cells",66 µg/mL
same,CC50 at 24 h,"in vitro [5]; WI-38 LD50, Table 26, valine substitution",66 µg/mL
same,MBC E. coli A.25922,[6],25 µg/mL
same,MBC P. aerug A.27853,[7],10 µg/mL
same,MBC S. aur A.25923,[8],25 µg/mL
same,MFC Candida A.10231,[9],>50 µg/mL
CC(C)C[C@H](NC(=O)[C@H](C)NC(=O)[C@H](CC(C)C)NC(=O)[C@H](CCCCN)NC(=O)[C@H](C)NC(=O)[C@H](CC(C)C)NC(=O)[C@H](CCCCN)NC(=O)[C@H](CCCCN)NC(=O)[C@H](C)NC(=O)[C@H](CC(C)C)NC(=O)[C@H](CCCCN)NC(=O)[C@H](C)NC(=O)[C@H](CC(C)C)NC(=O)[C@H](CCCCN)NC(=O)[C@H](CCCCN)NC(=O)[C@H](C)NC(=O)[C@@H](N)Cc1ccccc1)C(N)=O [P35],paerug9027 (MIC),[10],200 µg/mL
same,staph6538 (MIC),[11],5 µg/mL
same,yeast (MIC or MFC),[12],25 µg/mL
same,S. aureus (MRSA) MIC,S. aureus (MRSA),8 µg/mL
same,S. epidermidis C621 MIC,S. epidermidis C621,4 µg/mL
same,S. pyogenes M76 MIC,S. pyogenes M76,4 µg/mL
same,S. pyogenes MIC,S. pyogenes ATCC19615,16
same,S. pneumoniae MIC,S. pneumoniae C718,4 µg/mL
same,P. acne MIC,P. acne ATCC 6919,4
same,LD50 BMKC,BMKC,7 µg/mL
same,H1299 LD50,H1299,16 µg/mL
same,HeLaS3 LD50,HeLaS3,27 µg/mL
same,LD50 MCF7,MCF7,9 µg/mL
same,PC3 LD50,PC3,5 µg/mL
same,LD50 SW480,SW480,14 µg/mL
same,HC50 at 1 h,in vitro [3]; [13],200 µg/mL
same,MBC of peptide,Staph. aureus 29213; in the presence of Cefoperazone ([…]),20 µg/mL
same,MBC of peptide,Staph. aureus 29213; in the presence of Vancomycin (1 ppm),32 µg/mL
same,MBC of peptide,Staph. aureus 29213; peptide alone,50 µg/mL
same,MIC Cm-comb.,P. aeruginosa H374; MIC of chloramphenicol with peptide at ¼ MIC,16 µg/mL
same,MIC Nal-comb.,P. aeruginosa H374; MIC of nalidixic acid with peptide at ¼ MIC,"10,000 μg/ml"
same,FIC Index,P. aeruginosa H374; chloramphenicol + peptide at ¼ MIC,1.25
same,FIC Index,"P. aeruginosa H374; nalidixic acid + peptide at ¼ MIC, FIC=0.25+MIC comb/MIC alone",2.25
same,FIC Index,P. aeruginosa H774,1.25
same,MIC Nal-comb.,P. aeruginosa,624 µg/mL
same,WI38 LD50,WI38,8 µg/mL
same,CC50 at 24 h,"in vitro [5]; LD50 WI38, WI38 normal lung fibroblast line, MTT, 24 hours with peptide",8 µg/mL
CN(C)[C@@H]1C(O)=C(C(N)=O)C(=O)[C@@]2(O)C(O)=C3C(=O)c4c(O)cccc4[C@@](C)(O)[C@H]3C[C@@H]12 [Tetracycline],MBC,"Escherichia coli 25922; Escherichia coli, 25922, read-out: MBC of tetracycline",10 µg/mL
same,MBC,Escherichia coli 25922; [14],10 µg/mL
same,"MBC, With peptide",Escherichia coli 25922; with 5 μg/mL peptide Shiva-10,2.5 µg/mL
same,MBC,Staph. aureus 29213,10 µg/mL
same,"MBC, With 5 μg/mL peptide",Staph. aureus 29213,1 µg/mL
"CC(C)C[C@H](NC(=O)[C@H](C)NC(=O)[C@H](CC(C)C)NC(=O)[C@H](C)NC(=O)[C@H](CC(C)C)NC(=O)[C@H](CCCCN)NC(=O)[C@H](C)NC(=O)[C@H](CC(C)C)NC(=O)[C@H](CCCCN)NC(=O)[C@H](CCCCN)NC(=O)[C@H](C)NC(=O)[C@H](CC(C)C)NC(=O)[C@H](CCCCN)NC(=O)[C@H](CCCCN)NC(=O)[C@H](CC(C)C)NC(=O)[C@H](CCCCN)NC(=O)[C@H](CCCCN)NC(=O)[C@H](C)NC(=O)[C@H](CC(C)C)NC(=O)[C@H](CCCCN)NC(=O)[C@H](CCCCN)NC(=O)[C@H](C)NC(=O)[C@@H](N)Cc1ccccc1)C(N)=O [P11, reference compound]",HC50 at 1 h,in vitro [3]; [13],76 µg/mL
same,"MBC, Without peptide",Escherichia coli 25922; agent alone,50 µg/mL
same,"MBC, Without peptide",Staph. aureus 29213; agent alone,200 µg/mL
CCN1CCN(C(=O)N[C@@H](C(=O)N[C@@H]2C(=O)N3C(C(=O)O)=C(CSc4nnnn4C)CS[C@H]23)c2ccc(O)cc2)C(=O)C1=O [Cefoperazone],MBC,Escherichia coli 25922; [14],150 µg/mL
same,"MBC, With peptide",Escherichia coli 25922; with 15 μg/mL peptide Shiva-10,2.5 µg/mL
same,MBC,Staph. aureus 29213,10 µg/mL
same,"MBC, With 5 μg/mL peptide",Staph. aureus 29213,2.5 µg/mL
NC[C@H]1O[C@H](O[C@H]2[C@H](O)[C@@H](O[C@H]3O[C@H](CO)[C@@H](O)[C@H](N)[C@H]3O)[C@H](N)C[C@@H]2N)[C@H](N)C[C@@H]1O [Tobramycin],MBC,Staph. aureus 29213,25 µg/mL
same,"MBC, With 5 μg/mL peptide",Staph. aureus 29213,10 µg/mL
CC1(C)S[C@@H]2[C@H](NC(=O)[C@H](C(=O)O)c3ccsc3)C(=O)N2[C@H]1C(=O)O [Ticarcillin],MBC,Escherichia coli 25922; [14],100 µg/mL
same,"MBC, With peptide",Escherichia coli 25922; with 15 μg/mL peptide Shiva-10,50 µg/mL
same,MBC,Staph. aureus 29213,25 µg/mL
same,"MBC, With 5 μg/mL peptide",Staph. aureus 29213,15 µg/mL
CC1(C)S[C@@H]2[C@H](NC(=O)[C@H](N)c3ccccc3)C(=O)N2[C@H]1C(=O)O [Ampicillin],MBC,Staph. aureus 29213,5 µg/mL
same,"MBC, With 5 μg/mL peptide",Staph. aureus 29213,2.5 µg/mL
